# Results reported in ChEMBL document CHEMBL4610129, “Discovery of Novel Selective and Orally Bioavailable Phosphodiesterase-1 Inhibitors for the Efficient Treatment of Idiopathic Pulmonary Fibrosis” (J Med Chem, 2020).
# Calls of active or inactive are those of the source. The calls are words filed in the database; no cut-off is given here.
# Assays:
# [1] = target: T1, Dual specificity calcium/calmodulin-dependent 3',5'-cyclic nucleotide phosphodiesterase 1C (Homo sapiens, UniProt Q14123); assay: Inhibition of PDE1C2 (147 to 531 residues) (unknown origin) at 100 nM using [3H]-cGMP substrate incubated for 15 mins by liquid scintillation counting method relative to control
# [2] = target: T1, Dual specificity calcium/calmodulin-dependent 3',5'-cyclic nucleotide phosphodiesterase 1C; assay: Inhibition of PDE1C2 (147 to 531 residues) (unknown origin) using [3H]-cGMP substrate incubated for 15 mins by liquid scintillation counting method
# [3] = Half life in rat liver microsomes; assay type: ADME, Microsome
# [4] = target: Dual specificity calcium/calmodulin-dependent 3',5'-cyclic nucleotide phosphodiesterase 1B (Homo sapiens, UniProt Q01064); assay: Inhibition of PDE1B (146 to 506 residues) (unknown origin) using [3H]-cGMP substrate incubated for 15 mins by liquid scintillation counting method
# [5] = target: High affinity cGMP-specific 3',5'-cyclic phosphodiesterase 9A (Homo sapiens, UniProt O76083); assay: Inhibition of PDE9A (181 to 506 residues) (unknown origin) using [3H]-cGMP substrate incubated for 15 mins by liquid scintillation counting method
# Rattus norvegicus [6] = assay: Anti-pulmonary fibrosis activity in Sprague-Dawley rat model of BLM-induced idiopathic pulmonary fibrosis assessed as reduction in lung structural damage at 150 mg/kg, po dosed daily for 28 days by H and E staining based assay; assay type: functional, organism-based
# Rattus norvegicus [7] = assay: Anti-pulmonary fibrosis activity in Sprague-Dawley rat model of BLM-induced idiopathic pulmonary fibrosis assessed as reduction in enhanced pause at 150 mg/kg, po dosed daily for 28 days by mka noninvasive pulmonary monitoring system based method; assay type: functional, organism-based
# Rattus norvegicus [8] = assay: Anti-pulmonary fibrosis activity in Sprague-Dawley rat model of BLM-induced idiopathic pulmonary fibrosis assessed as reduction in end-expiratory pause at 150 mg/kg, po dosed daily for 28 days by mka noninvasive pulmonary monitoring system based method; assay type: functional, organism-based
# Rattus norvegicus [9] = assay: Anti-pulmonary fibrosis activity in Sprague-Dawley rat model of BLM-induced idiopathic pulmonary fibrosis assessed as reduction in peak expiratory flow at 150 mg/kg, po dosed daily for 28 days by mka noninvasive pulmonary monitoring system based method; assay type: functional, organism-based
# Rattus norvegicus [10] = assay: Anti-pulmonary fibrosis activity in Sprague-Dawley rat model of BLM-induced idiopathic pulmonary fibrosis assessed as reduction in end-inspiratory pause at 150 mg/kg, po dosed daily for 28 days by mka noninvasive pulmonary monitoring system based method; assay type: functional, organism-based
# Rattus norvegicus [11] = assay: Anti-pulmonary fibrosis activity in Sprague-Dawley rat model of BLM-induced idiopathic pulmonary fibrosis assessed as reduction in mid-expiratory flow at 150 mg/kg, po dosed daily for 28 days by mka noninvasive pulmonary monitoring system based method; assay type: functional, organism-based
# Rattus norvegicus [12] = assay: Anti-pulmonary fibrosis activity in Sprague-Dawley rat model of BLM-induced idiopathic pulmonary fibrosis assessed as reduction in peak inspiratory flow at 150 mg/kg, po dosed daily for 28 days by mka noninvasive pulmonary monitoring system based method; assay type: functional, organism-based
# Rattus norvegicus [13] = assay: Anti-pulmonary fibrosis activity in Sprague-Dawley rat model of BLM-induced idiopathic pulmonary fibrosis assessed as inhibition of collagen deposition at 150 mg/kg, po dosed daily for 28 days by Masson staining based assay; assay type: functional, organism-based
# T1 sequence (Q14123 whole entry, the tested form may be a part): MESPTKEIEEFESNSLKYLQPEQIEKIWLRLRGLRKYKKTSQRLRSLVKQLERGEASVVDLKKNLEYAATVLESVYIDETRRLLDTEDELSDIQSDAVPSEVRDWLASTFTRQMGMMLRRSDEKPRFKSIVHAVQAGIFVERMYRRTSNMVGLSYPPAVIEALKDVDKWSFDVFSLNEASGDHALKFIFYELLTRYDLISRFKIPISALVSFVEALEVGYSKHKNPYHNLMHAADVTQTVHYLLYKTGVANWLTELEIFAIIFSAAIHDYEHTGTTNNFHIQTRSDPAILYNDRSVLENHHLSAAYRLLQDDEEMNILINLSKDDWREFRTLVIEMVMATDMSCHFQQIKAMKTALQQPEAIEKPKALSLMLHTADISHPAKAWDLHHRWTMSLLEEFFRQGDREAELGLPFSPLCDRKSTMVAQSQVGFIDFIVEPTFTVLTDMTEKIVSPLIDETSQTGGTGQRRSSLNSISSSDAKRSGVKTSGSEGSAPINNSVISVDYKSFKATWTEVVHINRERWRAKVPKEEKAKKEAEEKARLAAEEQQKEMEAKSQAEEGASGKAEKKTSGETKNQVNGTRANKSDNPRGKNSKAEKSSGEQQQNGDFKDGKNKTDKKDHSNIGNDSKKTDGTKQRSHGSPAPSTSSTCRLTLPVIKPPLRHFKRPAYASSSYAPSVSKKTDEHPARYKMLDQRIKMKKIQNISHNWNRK
# Sequence of Dual specificity calcium/calmodulin-dependent 3',5'-cyclic nucleotide phosphodiesterase 1B (Q01064 whole entry, the tested form may be a part): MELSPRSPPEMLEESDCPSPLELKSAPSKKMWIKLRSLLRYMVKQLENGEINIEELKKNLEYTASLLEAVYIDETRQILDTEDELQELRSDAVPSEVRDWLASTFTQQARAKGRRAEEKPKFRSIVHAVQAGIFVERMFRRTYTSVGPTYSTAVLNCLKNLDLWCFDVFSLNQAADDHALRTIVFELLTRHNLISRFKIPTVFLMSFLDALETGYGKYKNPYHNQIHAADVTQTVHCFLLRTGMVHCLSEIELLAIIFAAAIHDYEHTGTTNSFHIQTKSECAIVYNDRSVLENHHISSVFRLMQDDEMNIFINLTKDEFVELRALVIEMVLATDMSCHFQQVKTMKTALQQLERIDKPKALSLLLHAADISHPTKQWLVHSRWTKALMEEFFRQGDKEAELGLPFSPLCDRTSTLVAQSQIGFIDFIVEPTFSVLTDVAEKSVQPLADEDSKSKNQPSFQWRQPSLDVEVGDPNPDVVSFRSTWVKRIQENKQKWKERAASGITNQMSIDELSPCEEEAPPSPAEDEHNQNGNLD
# Sequence of High affinity cGMP-specific 3',5'-cyclic phosphodiesterase 9A (O76083 whole entry, the tested form may be a part): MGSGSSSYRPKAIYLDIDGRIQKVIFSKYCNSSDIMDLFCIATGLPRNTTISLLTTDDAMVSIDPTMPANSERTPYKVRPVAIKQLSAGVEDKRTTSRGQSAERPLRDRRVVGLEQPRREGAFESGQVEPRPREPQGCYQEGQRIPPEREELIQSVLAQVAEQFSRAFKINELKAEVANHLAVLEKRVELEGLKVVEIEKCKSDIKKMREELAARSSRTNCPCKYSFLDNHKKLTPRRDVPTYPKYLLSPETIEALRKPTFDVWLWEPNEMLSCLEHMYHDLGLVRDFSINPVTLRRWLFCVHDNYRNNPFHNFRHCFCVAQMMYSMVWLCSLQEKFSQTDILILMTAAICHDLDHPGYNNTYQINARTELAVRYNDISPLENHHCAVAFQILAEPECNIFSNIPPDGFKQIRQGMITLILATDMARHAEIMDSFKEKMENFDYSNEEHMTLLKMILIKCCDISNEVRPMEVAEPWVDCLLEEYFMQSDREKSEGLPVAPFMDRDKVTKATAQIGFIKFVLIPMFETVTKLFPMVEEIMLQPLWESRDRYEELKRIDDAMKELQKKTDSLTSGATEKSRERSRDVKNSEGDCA
inhibition [1] [%],IC50 [2] [µM],half-life [3] [min],Structure (SMILES),other results
13,–,–,CCn1c(N[C@H](C)c2ccc(Cl)cc2)nc2c(cnn2C2CCCC2)c1=O,–
47,–,–,CC(C)n1ncc2c(=O)n(Cc3ccsc3)c(N[C@H](C)c3ccc(Cl)cc3)nc21,–
–,0.0047,0.5,C[C@@H](Nc1nc2c(cnn2C2CCCC2)c(=O)n1Cc1ccccc1)c1ccc(Cl)cc1,IC50 [4]: 0.023 µM; IC50 [5]: > 10 µM
–,0.258,–,C[C@@H](Nc1nc2c(cnn2C2CCCC2)c(=O)n1C)c1ccc(Cl)cc1,–
5,–,–,CC(C)Cn1c(N[C@H](C)c2ccc(Cl)cc2)nc2c(cnn2C2CCCC2)c1=O,–
39,–,–,CC(C)n1ncc2c(=O)n(Cc3ccncc3)c(N[C@H](C)c3ccc(Cl)cc3)nc21,–
–,0.057,2.2,CC(C)n1ncc2c(=O)n(C)c(N[C@H](C)c3ccc(Cl)cc3)nc21,–

# Second part, the compound before the results:
Structure (SMILES),inhibition [1] [%],IC50 [2] [µM],half-life [3] [min],other results
CC(C)(C)n1ncc2c(=O)n(Cc3ccc(F)cc3)c(N[C@@H]3CCc4ccccc43)nc21,54,–,–,–
CC1c2ccccc2CCN1c1nc2c(cnn2C(C)(C)C)c(=O)n1Cc1ccc(F)cc1 (stereo not given),16,–,–,–
C[C@H](Nc1nc2c(cnn2C(C)(C)C)c(=O)n1Cc1ccccc1)c1ccc(F)cc1,–,0.245,–,–
C[C@@H](Nc1nc2c(cnn2C(C)(C)C)c(=O)n1Cc1ccccc1)c1ccc(Cl)cc1,–,0.0015,8.2,–
CC(C)n1ncc2c(=O)n(Cc3ccccc3)c(N[C@H](C)c3ccc(Cl)cc3)nc21,–,0.0009,2.4,–
CC(C)n1ncc2c(=O)n(Cc3ccc4c(c3)OCO4)c(N[C@H](C)c3ccc(Cl)cc3)nc21,–,0.02,1.6,–
Cc1ccc(=O)n(-c2ccccc2)c1,–,–,–,Activity (Rattus norvegicus [6]): Active; Activity (Rattus norvegicus [7]): Active; Activity (Rattus norvegicus [8]): Active; Activity (Rattus norvegicus [9]): Active; Activity (Rattus norvegicus [10]): Active; Activity (Rattus norvegicus [11]): Active; Activity (Rattus norvegicus [12]): Active; Activity (Rattus norvegicus [13]): Active
C[C@@H](Nc1nc2c(cnn2C(C)(C)C)c(=O)n1Cc1ccccc1)c1ccc(F)cc1,–,0.0026,–,–
C[C@@H](Nc1nc2c(cnn2C(C)(C)C)c(=O)n1C)c1ccc(Cl)cc1,–,0.065,–,–
C[C@H](Nc1nc2c(cnn2C(C)(C)C)c(=O)n1Cc1ccccc1)c1ccc(Cl)cc1,–,0.157,–,–
CC(C)(C)n1ncc2c(=O)n(Cc3ccc(F)cc3)c(N[C@H]3CCc4ccccc43)nc21,37,–,–,–
C[C@@H](Nc1nc2c(cnn2C(C)(C)C)c(=O)n1Cc1ccc2c(c1)OCO2)c1ccc(Cl)cc1,–,0.027,2.1,–
C[C@@H](Nc1nc2c(cnn2C2CCCC2)c(=O)[nH]1)c1ccc(Cl)cc1,–,–,–,IC50 [4]: 0.08 µM
